US12171230B2, “Herbicidal compositions” (Bayer Aktiengesellschaft, priority 2018, dated 2024)

Columns and labels:
Format in all cases: in vivo
Poa annua = assay: Post-emergence herbicidal action against Poa annua
Experimental: (§1) When the observed efficacies exceed the formal sum total of the values of the tests with individual applications, they also exceed the expected value according to Colby, which is calculated using the formula below and is likewise regarded as an indication of synergism (cf. S. R. Colby; in Weeds 15 (1967) p. 20 to 22): E^C=A+B−([…])
(§2) Here: • A=efficacy of the active compound (A) in % at an application rate of a g a.i./ha; • B=efficacy of the active compound (B) in % at an application rate of b g a.i./ha; • E^C=expected value of the effect of the combination (A)+(B) in % at the combined application rate a+b g a.i./ha.
(§3) Seeds or rhizome pieces of mono- and dicotyledonous weeds are placed in sandy loam in pots, covered with soil and grown in a greenhouse under good growth conditions (temperature, air humidity, water supply). Three weeks after sowing, the test plants were treated at the three-leaf stage with the compositions according to the invention. The compositions according to the invention formulated as spray powders or as emulsion concentrates were sprayed onto the green plant parts in various dosages with an application rate of 300 to 800 l/ha of water (equivalent). After the test plants have been left to stand in the greenhouse under optimal growth conditions for about 3 to 4 weeks, the action of the preparations is scored visually in comparison to untreated controls. The compositions according to the invention also have good post-emergence herbicidal activity against a broad spectrum of economically important gramineous and broadleaf weeds.

Galium aparine = assay: Post-emergence herbicidal action against Galium aparine
Experimental: as §1, §2, §3

Matricaria inodora = assay: Post-emergence herbicidal action against Matricaria inodora
Lolium rigidum = assay: Post-emergence herbicidal action against Lolium rigidum
Excerpt: (§4) The following abbreviations are used in the description and the tables that follow: • g of a.i./ha=grams of active substance (active ingredient) (=100% active compound) per hectare; • The sum total of the effects of the individual applications is reported under E^A; • expected values according to Colby are each reported under E^C.
(§5) The rating period is reported in days after application (DAT).

[1] = tested on: Lolium rigidum (resistant biotype); assay: Post-emergence herbicidal action against Lolium rigidum (resistant biotype)
Excerpt: as §4, §5

Phalaris minor = assay: Post-emergence herbicidal action against Phalaris minor
Excerpt: as §4, §5

Alopecurus myosuroides = assay: Post-emergence herbicidal action against Alopecurus myosuroides
Excerpt: as §4, §5

Bromus sterilis = assay: Post-emergence herbicidal action against Bromus sterilis
Excerpt: as §4, §5

Veronica hederifolia = assay: Post-emergence herbicidal action against Veronica hederifolia
Excerpt: as §4, §5

Viola tricolor = assay: Post-emergence herbicidal action against Viola tricolor
Excerpt: as §4, §5

Lamium purpureum = assay: Post-emergence herbicidal action against Lamium purpureum; conditions: 100 g of a.i./ha
Experimental: as §1, §2, §3

Centaurea cyano = assay: Post-emergence herbicidal action against Centaurea cyano
Experimental: Seeds or rhizome pieces of mono- and dicotyledonous weeds are placed in sandy loam in pots, covered with soil and grown in a greenhouse under good growth conditions (temperature, air humidity, water supply). Three weeks after sowing, the test plants were treated at the three-leaf stage with the compositions according to the invention. The compositions according to the invention formulated as spray powders or as emulsion concentrates were sprayed onto the green plant parts in various dosages with an application rate of 300 to 800 l/ha of water (equivalent).

Amaranthus palmeri = assay: Post-emergence herbicidal action against Amaranthus palmeri; conditions: Amaranthus palmeri, post-emergence, 504 h, 1.3 g of a.i./ha, post-emergence, block with (B9.10) Saflufenacil; read-out: Herbicidal action 21 DAT [%] against Amaranthus palmeri
Experimental: as §1, §2, §3

Brachiaria platyphylla = assay: Post-emergence herbicidal action against Brachiaria platyphylla; conditions: 4 g of a.i./ha, post-emergence, block with (B9.10) Saflufenacil
Experimental: as §1, §2, §3

Digitaria sanguinalis = assay: Post-emergence herbicidal action against Digitaria sanguinalis; conditions: 12 g of a.i./ha, post-emergence
Experimental: as §1, §2, §3

Pharbitis purpurea = assay: Post-emergence herbicidal action against Pharbitis purpurea; conditions: 1.3 g of a.i./ha, post-emergence
Experimental: as §1, §2, §3

## COc1cc(OC)nc(NC(=O)NS(=O)(=O)c2cc(NC=O)ccc2C(=O)N(C)C)n1 [(B2.31) Foramsulfuron]
Poa annua; 1 g of a.i./ha
  Herbicidal action 28 DAT against Poa annua L.: 40%
Galium aparine; 1 g of a.i./ha
  Herbicidal action 28 DAT against Galium aparine: 0%
Galium aparine; 9 g of a.i./ha
  Herbicidal action 28 DAT against Galium aparine: 65%
Matricaria inodora; 1 g of a.i./ha
  Herbicidal action 14 DAT against Matricaria inodora: 70%
  Herbicidal action 28 DAT against Matricaria inodora: 30%
Lolium rigidum; 3 g of a.i./ha
  Herbicidal action 28 DAT against Lolium rigidum: 35%
Lolium rigidum; 9 g of a.i./ha
  Herbicidal action 28 DAT against Lolium rigidum: 65%
[1]; 3 g of a.i./ha
  Herbicidal action 14 DAT against Lolium rigidum (resistant biotype): 15%
  Herbicidal action 28 DAT against Lolium rigidum (resistant biotype): 10%
[1]; 9 g of a.i./ha
  Herbicidal action 14 DAT against Lolium rigidum (resistant biotype): 15%
  Herbicidal action 28 DAT against Lolium rigidum (resistant biotype): 20%
Phalaris minor; 3 g of a.i./ha
  Herbicidal action 14 DAT against Phalaris minor: 85%
  Herbicidal action 28 DAT against Phalaris minor: 40%
Phalaris minor; 9 g of a.i./ha
  Herbicidal action 14 DAT against Phalaris minor: 80%
  Herbicidal action 28 DAT against Phalaris minor: 20%
Alopecurus myosuroides; 1 g of a.i./ha
  Herbicidal action 14 DAT against Alopecurus myosuroides: 80%
  Herbicidal action 28 DAT against Alopecurus myosuroides: 40%
Alopecurus myosuroides; 3 g of a.i./ha
  Herbicidal action 28 DAT against Alopecurus myosuroides: 80%
Alopecurus myosuroides; 9 g of a.i./ha
  Herbicidal action 28 DAT against Alopecurus myosuroides: 85%
Bromus sterilis; 1 g of a.i./ha
  Herbicidal action 14 DAT against Bromus sterilis: 65%
Bromus sterilis; 3 g of a.i./ha
  Herbicidal action 14 DAT against Bromus sterilis: 85%
  Herbicidal action 28 DAT against Bromus sterilis: 25%
Bromus sterilis; 9 g of a.i./ha
  Herbicidal action 14 DAT against Bromus sterilis: 85%
  Herbicidal action 28 DAT against Bromus sterilis: 60%
Veronica hederifolia; 1 g of a.i./ha
  Herbicidal action 14 DAT against Veronica hederifolia: 80%
Viola tricolor; 1 g of a.i./ha
  Herbicidal action 28 DAT against Viola tricolor: 65%
Viola tricolor; 3 g of a.i./ha
  Herbicidal action 28 DAT against Viola tricolor: 80%

## CC(C)N(C(=O)COc1nnc(C(F)(F)F)s1)c1ccc(F)cc1 [(B2.28) Flufenacet]
Lamium purpureum
  Herbicidal action 14 DAT against Lamium purpureum L.: 40%
  Herbicidal action 28 DAT against Lamium purpureum L.: 20%
Poa annua; 33 g of a.i./ha
  Herbicidal action 28 DAT against Poa annua L.: 10%
Poa annua; 100 g of a.i./ha
  Herbicidal action 28 DAT against Poa annua L.: 70%
Poa annua; 300 g of a.i./ha
  Herbicidal action 28 DAT against Poa annua L.: 65%
Centaurea cyano; 100 g of a.i./ha
  Herbicidal action 28 DAT against Centaurea cyanus: 20%
Centaurea cyano; 300 g of a.i./ha
  Herbicidal action 14 DAT against Centaurea cyanus: 30%
Galium aparine; 33 g of a.i./ha
  Herbicidal action 28 DAT against Galium aparine: 60%
Galium aparine; 100 g of a.i./ha
  Herbicidal action 28 DAT against Galium aparine: 65%
Matricaria inodora; 33 g of a.i./ha
  Herbicidal action 14 DAT against Matricaria inodora: 0%
Lolium rigidum; 33 g of a.i./ha
  Herbicidal action 14 DAT against Lolium rigidum: 0%
Lolium rigidum; 100 g of a.i./ha
  Herbicidal action 14 DAT against Lolium rigidum: 35%
  Herbicidal action 28 DAT against Lolium rigidum: 20%
Lolium rigidum; 300 g of a.i./ha
  Herbicidal action 14 DAT against Lolium rigidum: 40%
  Herbicidal action 28 DAT against Lolium rigidum: 25%
[1]; 100 g of a.i./ha
  Herbicidal action 14 DAT against Lolium rigidum (resistant biotype): 20%
  Herbicidal action 28 DAT against Lolium rigidum (resistant biotype): 10%
[1]; 300 g of a.i./ha
  Herbicidal action 14 DAT against Lolium rigidum (resistant biotype): 10%
  Herbicidal action 28 DAT against Lolium rigidum (resistant biotype): 20%
Phalaris minor; 33 g of a.i./ha
  Herbicidal action 28 DAT against Phalaris minor: 0%
Phalaris minor; 100 g of a.i./ha
  Herbicidal action 28 DAT against Phalaris minor: 40%
Phalaris minor; 300 g of a.i./ha
  Herbicidal action 28 DAT against Phalaris minor: 85%
Alopecurus myosuroides; 100 g of a.i./ha
  Herbicidal action 14 DAT against Alopecurus myosuroides: 70%
Alopecurus myosuroides; 300 g of a.i./ha
  Herbicidal action 28 DAT against Alopecurus myosuroides: 75%
Bromus sterilis; 33 g of a.i./ha
  Herbicidal action 14 DAT against Bromus sterilis: 35%
Bromus sterilis; 100 g of a.i./ha
  Herbicidal action 14 DAT against Bromus sterilis: 75%
  Herbicidal action 28 DAT against Bromus sterilis: 25%
Bromus sterilis; 300 g of a.i./ha
  Herbicidal action 28 DAT against Bromus sterilis: 65%
Veronica hederifolia; 33 g of a.i./ha
  Herbicidal action 14 DAT against Veronica hederifolia: 35%
Veronica hederifolia; 100 g of a.i./ha
  Herbicidal action 14 DAT against Veronica hederifolia: 40%
Viola tricolor; 33 g of a.i./ha
  Herbicidal action 14 DAT against Viola tricolor: 20%
  Herbicidal action 28 DAT against Viola tricolor: 20%
Viola tricolor; 100 g of a.i./ha
  Herbicidal action 14 DAT against Viola tricolor: 50%
  Herbicidal action 28 DAT against Viola tricolor: 20%
Viola tricolor; 300 g of a.i./ha
  Herbicidal action 28 DAT against Viola tricolor: 35%

## CC(C)N(C)S(=O)(=O)NC(=O)c1cc(-n2c(=O)cc(C(F)(F)F)n(C)c2=O)c(F)cc1Cl [(B9.10) Saflufenacil, saflufenacil, reference compound]
Amaranthus palmeri
  pest or weed control at 1.3 g/ha: 70%
Brachiaria platyphylla
  Herbicidal action 21 DAT [%] against Brachiaria platyphylla: 25%
Digitaria sanguinalis
  Herbicidal action 21 DAT [%] against Digitaria sanguinalis: 50%
Pharbitis purpurea
  Herbicidal action 21 DAT [%] against Pharbitis purpurea: 30%
